Measured values as given in patent US20220055989A1, “CONDENSED PYRROLES AS NOVEL BROMODOMAIN INHIBITORS” (ALBERT LUDWING UNIVERSITÄT FREIBURG, priority 2018, published 2022).

How the values were obtained:
BRPF1B = biological target: T1, BRPF1B (Homo sapiens, UniProt P55201); test: Dissociation constant KD BRPF1B; assay type: binding
T1 construct: dissociation constants KD for two bromodomains (BRD4(1) and BRPF1B)
T1 sequence (P55201 628-732 limits assumed): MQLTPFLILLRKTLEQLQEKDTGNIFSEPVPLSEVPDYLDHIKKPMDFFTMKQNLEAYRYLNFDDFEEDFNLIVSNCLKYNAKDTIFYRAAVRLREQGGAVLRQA

BRD4(1) [1] = biological target: T2, BRD4(1) (Homo sapiens, UniProt O60885); test: Isothermal titration calorimetry, dissociation constant KD BRD4(1); assay type: binding
T2 construct: BRD4-BD1 was expressed and purified as described previously; made in house
Procedure: BRD4-BD1 was expressed and purified as described previously (Filippakopoulos et al, (2012), Cell 149(1): […]) with the exception of the final buffer for crystallization and ITC analysis (20 mM Hepes/NaOH pH 7.5, 150 mM NaCl). Crystals were grown in the presence of 3.5 M Na-Formate (pH 7.5) at a protein concentration of 10 mg/ml and a ligand concentration of 2 mM added directly to the protein prior to crystallization from a 100 mM stock solution in DMSO. Data were collected at 100K using either a Rigaku HF-007 rotating anode X-ray generator equipped with VariMaxHF optics and a Saturn944 CCD detector or a mar345 image plate respectively at λ=1.54179 Å or at the PXI beamline at the Swiss Light Source at λ=1.000 Å with a Pilatus detector. Data processing and reduction was done with iMOSFLM (Leslie AGW PH (2007), Evolving Methods for Macromolecular Crystallography 245, 41.51), POINTLESS, and SCALA (Kabsch W (2010) Xds. Acta crystallographica. Section D, Biological crystallography 66(Pt 2):125-132; Bruker (2008) SADABS, SAINT and XPREP (Bruker AXS Inc., Madison, Wis., USA); Collaborative Computational Project N (1994) The CCP4 suite: programs for protein crystallography, Acta crystallographica, Section D, Biological crystallography 50(Pt 5):760-763), or with XDS, XSCALE, XDSCONV (Evans P (2006), Scaling and assessment of data quality, Acta crystallographica, Section D, Biological crystallography 62(Pt 1):72-82), and XPREP (Evans P R (2011), An introduction to data reduction: space-group determination, scaling and intensity statistics, Acta crystallographica, Section D, Biological crystallography 67(Pt 4):282-292).
Data were obtained in discrete titration experiments with an injection volume of 12 μl per injection. Subsequently, the heats per injection were calculated as integrals and after normalization against the molar concentrations plotted against the molar ratio as implemented in Microcal Origin. Finally, data were fitted according to a single set of sites binding model with
The dissociation constant Kd, is commonly used to describe the affinity between a ligand L and a protein, i.e. how tightly a ligand binds to a particular protein. The dissociation constant has molar units which correspond to the concentration of ligand at which the binding site on a particular protein is half occupied, i.e. the concentration of the ligand at which the concentration of protein with ligand bound equals the concentration of protein with no ligand bound. The smaller the dissociation constant, the higher the affinity between ligand and protein.

HL-60 cells = test: GI50 in a culture of HL-60 cells; assay type: cell-based; conditions: concentration required to reduce the population of a culture of HL-60 cells by 50%
BRD4(1) [2] = biological target: T2, BRD4(1); test: BROMOscan Kd determination BRD4(1); assay type: binding
Procedure: (§1) Bromodomain profiling was carried out on the basis of BROMOscan™. This platform accounted for the indirect determination of the dissociation constants between 19 bromodomains and the compound of formula (13), by binding competition against a reference immobilized ligand. Compounds that bind the bromodomain prevent its binding to the immobilized ligand thus reducing the amount of protein captured. […] Hits are identified by measuring the amount of bromodomain captured in test versus control samples. Bromodomain assays for Kd determination: T7 phage strains displaying bromodomains were grown in parallel in 24-well blocks in an E. coli host derived from the BL21 strain. E. coli were grown to log-phase and infected with T7 phage from a frozen stock (multiplicity of infection=0.4) and incubated with shaking at 32° C. until lysis (90-150 minutes). The lysates were centrifuged (5,000×g) and filtered (0.2 μm) to remove cell debris. […] The liganded beads were blocked with excess biotin and washed with blocking buffer (SeaBlock (Pierce), 1% BSA, 0.05% Tween 20, 1 mM DTT) to remove unbound ligand and to reduce non-specific phage binding. […] Test compounds were prepared as 1000× stocks in 100% DMSO. Kds were determined using an 11-point 3-fold compound dilution series with one DMSO control point. All compounds for Kd measurements are distributed by acoustic transfer (non-contact dispensing) in 100% DMSO. The compounds were then diluted directly into the assays such that the final concentration of DMSO was 0.09%. All reactions performed in polypropylene 384-well plates. Each was a final volume of 0.02 ml. […] The bromodomain concentration in the eluates was measured by qPCR. […] All compounds for Kd measurements are distributed by acoustic transfer (non-contact dispensing) in 100% DMSO. The compounds were then diluted directly into the assays such that the final concentration of DMSO was 0.09%. Most Kds were determined using a compound top concentration=10,000 nM. If the initial Kd determined was <0.169 nM (the lowest concentration tested), the measurement was repeated with a serial dilution starting at a lower top concentration. Binding Constants (Kds): Binding constants (Kds) were calculated with a standard dose-response curve using the Hill equation: The Hill Slope was set to −1. Curves were fitted using a non-linear least square fit with the Levenberg-Marquardt algorithm.

BRD7 = biological target: T3, BRD7 (Homo sapiens, UniProt Q9NPI1); test: BROMOscan Kd determination BRD7; assay type: binding
T3 construct: T7 phage strains displaying bromodomains were grown; host or cells: T7 phage in E. coli derived from BL21
T3 sequence (Q9NPI1 131-235 limits assumed): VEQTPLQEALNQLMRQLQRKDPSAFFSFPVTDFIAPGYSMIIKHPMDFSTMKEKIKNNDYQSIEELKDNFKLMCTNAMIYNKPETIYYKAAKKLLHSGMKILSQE
Procedure: as §1

BRD9 = biological target: T4, BRD9 (Homo sapiens, UniProt Q9H8M2); test: BROMOscan Kd determination BRD9; assay type: binding
T4 construct: T7 phage strains displaying bromodomains were grown; host or cells: T7 phage in E. coli derived from BL21
T4 sequence (Q9H8M2 136-240 limits assumed): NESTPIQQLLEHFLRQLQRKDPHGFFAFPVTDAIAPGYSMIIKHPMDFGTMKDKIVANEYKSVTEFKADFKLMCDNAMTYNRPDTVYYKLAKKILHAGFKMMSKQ
Procedure: as §1

BRPF1 = biological target: T5, BRPF1 (Homo sapiens, UniProt P55201); test: BROMOscan Kd determination BRPF1; assay type: binding
T5 construct: T7 phage strains displaying bromodomains were grown; host or cells: T7 phage in E. coli derived from BL21
T5 sequence (P55201 628-732 limits assumed): T1 sequence (P55201 628-732 limits assumed)
Procedure: as §1

CECR2 = biological target: T6, CECR2 (Homo sapiens, UniProt Q9BXF3); test: BROMOscan Kd determination CECR2; assay type: binding
T6 construct: T7 phage strains displaying bromodomains were grown; host or cells: T7 phage in E. coli derived from BL21
T6 sequence (Q9BXF3 434-538 limits assumed): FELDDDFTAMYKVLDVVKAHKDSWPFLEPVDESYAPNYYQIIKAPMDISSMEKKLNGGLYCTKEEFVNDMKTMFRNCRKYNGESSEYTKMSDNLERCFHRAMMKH
Procedure: as §1

EP300 = biological target: T7, EP300 (Homo sapiens, UniProt Q09472); test: BROMOscan Kd determination EP300; assay type: binding
T7 construct: T7 phage strains displaying bromodomains were grown; host or cells: T7 phage in E. coli derived from BL21
T7 sequence (Q09472 1049-1156 limits assumed): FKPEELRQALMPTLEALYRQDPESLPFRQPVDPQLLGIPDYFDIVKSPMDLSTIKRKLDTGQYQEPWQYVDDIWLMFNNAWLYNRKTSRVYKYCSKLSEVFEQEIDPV
Procedure: as §1

P. falciparum cultures = test: Plasmodium falciparum inhibitor treatment for 72 hours, parasitemia by flow cytometry; assay type: cell-based; conditions: 100 μm of compound, vs DMSO control, early ring, mid trophozoite and schizont stages
Procedure: Plasmodium falciparum Inhibitor Treatment for 72 Hours (One Replication Cycle) P. falciparum cultures were treated for 72 hours with 100 μm of compounds (19) to (22), (24) and (25) or DMSO as control. The cultures were stained for DNA content with fluorescent dye Hoechst 33342 (20 μm) and for RNA content with thiazole orange (1 μm). The double negative population represented uninfected erythrocytes (devoid of DNA and low in RNA content) whereas the P. falciparum infected erythrocytes were gated as early ring, mid trophozoite and late schizont stages based on their DNA and RNA content.

Kd (BRPF1B) [µM] | Kd (BRD4(1) [1]) [µM] | Kd (BRD4(1) [2]) [µM] | Kd (BRD7) [µM] | Kd (BRD9) [µM] | Kd (BRPF1) [µM] | Kd (CECR2) [µM] | Kd (EP300) [µM] | Structure (SMILES) | also measured
0.91 | – | – | – | – | – | – | – | Cc1[nH]c(-c2cccc(O)c2)c2c1C(=O)CCCC2 [Compound 19] | –
– | 0.144 | 0.085 | 0.25 | 0.16 | 0.42 | 1.1 | 2.1 | CCN(CC)S(=O)(=O)c1ccc(OC)c(NC(=O)c2[nH]c(C)c3c2CCCCC3=O)c1 [Compound 11, N-(5-(N,N-diethylsulfamoyl)-2-methoxyphenyl)-3-methyl-4-oxo-2,4,5,6,7,8-hexahydrocyclohepta[c]pyrrole-1-carboxamide] | GI50HL60 (HL-60 cells): 1.36 µM
– | 0.26 | 0.3 | 0.16 | 0.068 | 0.32 | 0.24 | 1.8 | COc1ccc(S(=O)(=O)N2CCN(C)CC2)cc1NC(=O)c1[nH]c(C)c2c1CCCCC2=O [Compound 14] | GI50HL60 (HL-60 cells): 2.08 µM
5.08 | 6.41 | – | – | – | – | – | – | CNC(=O)c1[nH]c(C)c2c1CCCCC2=O [1″] | –
– | 0.177 | 0.17 | 0.31 | 0.53 | 2.5 | 8.1 | 9 | COc1ccc(S(=O)(=O)N2CCCCCC2)cc1NC(=O)c1[nH]c(C)c2c1CCCCC2=O [Compound 12, N-(5-(azepan-1-ylsulfonyl)-2-methoxyphenyl)-3-methyl-4-oxo-2,4,5,6,7,8-hexahydrocyclohepta[c]pyrrole-1-carboxamide] | GI50HL60 (HL-60 cells): 0.57 µM
– | 0.0722 | – | – | – | – | – | – | CCN(CC)S(=O)(=O)c1ccc(O)c(NC(=O)c2[nH]c(C)c3c2CCCCC3=O)c1 [Compound 18] | –
– | 0.0473 | 0.082 | 0.44 | 0.3 | 1.8 | 0.58 | 3.5 | COc1ccc(S(=O)(=O)N2CCCCC2)cc1NC(=O)c1[nH]c(C)c2c1CCCCC2=O [Compound 15] | –
1.99 | – | – | – | – | – | – | – | Cc1[nH]c(-c2ccccc2)c2c1C(=O)CCCC2 [Compound 21] | –
0.567 | – | – | – | – | – | – | – | Cc1[nH]c(-c2cccc(N)c2)c2c1C(=O)CCCC2 [Compound 20] | –
0.639 | – | – | – | – | – | – | – | Cc1[nH]c(-c2ccc3cc[nH]c3c2)c2c1C(=O)CCCC2 [Compound 24, 1-(1H-indol-6-yl)-3-methyl-5,6,7,8-tetrahydrocyclohepta[c]pyrrol-4(2H)-one] | degree of parasitemia (P. falciparum cultures): particularly effective
2.31 | – | – | – | – | – | – | – | Cc1noc(-c2[nH]c(C)c3c2CCCCC3=O)n1 [Compound 22] | –
1.05 | 4.56 | – | – | – | – | – | – | CCOC(=O)c1[nH]c(C)c2c1CCCCC2=O [Compound 8, Ethyl 3-methyl-4-oxo-2,4,5,6,7,8-hexahydrocyclohepta[c]pyrrole-1-carboxylate] | –
0.713 | – | – | – | – | – | – | – | Cc1[nH]c(-c2cccc(C(N)=O)c2)c2c1C(=O)CCCC2 [Compound 25] | –
2.05 | 8.28 | – | – | – | – | – | – | CCOC(=O)c1[nH]c(C)c2c1CCC=CC2=O [Compound 9, Ethyl 3-methyl-4-oxo-2,4,7,8-tetrahydrocyclohepta[c]pyrrole-1-carboxylate] | –
– | 0.417 | 0.15 | 0.0055 | 0.0043 | 1.3 | 0.76 | 0.99 | COc1ccc(S(=O)(=O)N2CC3(COC3)C2)cc1NC(=O)c1[nH]c(C)c2c1CCCCC2=O [Compound 16] | –
